From ChEMBL document CHEMBL1201862, “PubChem BioAssay data set” (2004)
Active and inactive are the calls of the source.

Key:
[1] = target: Ion channel NompC (Danio rerio, UniProt Q7T1G6); assay: Dose response cell-based high-throughput screening assay for agonists of the transient receptor potential channel N1 (TRPN1). [Related pubchem assays (depositor defined):AID1424, AID1448]; format: functional
[2] = target: Mucolipin-3 (Homo sapiens, UniProt Q8TDD5); assay: Fluorescence counterscreen assay for […] agonists: dose response cell-based high-throughput screening assay to identify agonists of the transient receptor potential channel ML3 (TRPML3). [Related pubchem assays: 1424, 1448 ]; format: functional
Sequence of Mucolipin-3 (Q8TDD5 whole entry): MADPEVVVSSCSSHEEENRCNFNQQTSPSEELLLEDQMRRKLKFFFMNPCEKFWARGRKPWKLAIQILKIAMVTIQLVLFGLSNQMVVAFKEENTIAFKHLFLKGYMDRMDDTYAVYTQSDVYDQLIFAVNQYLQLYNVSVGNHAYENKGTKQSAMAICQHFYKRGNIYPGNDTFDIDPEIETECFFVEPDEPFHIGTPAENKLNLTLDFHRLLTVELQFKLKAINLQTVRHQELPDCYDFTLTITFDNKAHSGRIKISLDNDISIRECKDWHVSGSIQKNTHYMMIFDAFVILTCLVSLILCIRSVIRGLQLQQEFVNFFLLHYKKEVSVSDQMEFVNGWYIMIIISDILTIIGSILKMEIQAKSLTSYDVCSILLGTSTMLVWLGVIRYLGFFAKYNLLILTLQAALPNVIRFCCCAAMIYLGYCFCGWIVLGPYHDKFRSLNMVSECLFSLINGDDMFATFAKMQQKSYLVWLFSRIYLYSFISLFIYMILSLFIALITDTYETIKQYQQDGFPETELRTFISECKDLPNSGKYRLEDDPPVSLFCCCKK

[3] = test system: Streptococcus sp. 'group A'; assay: growth inhibition of control SK(-) GAS strain, dose response, counter-screen for streptokinase expression inhibitor project, luminescence, kanamycin, BacTiterGlo, confirmation (AID 1900); format: functional, organism-based
[4] = test system: Streptococcus; assay: Group A Streptococcus viability loss, dose response, counter-screen for streptokinase expression inhibitor project, luminescence, BacTiterGlo (AID 1915); format: functional, organism-based;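 further: potency for reduction of bacterial viability or growth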
[5] = target: T1, Hexokinase HKDC1 (Homo sapiens, UniProt Q2TB90); assay: HKDC1 hexokinase activators, dose response, biochemical, W721R variant (AID 504730); format: functional
T1 sequence (Q2TB90 whole entry): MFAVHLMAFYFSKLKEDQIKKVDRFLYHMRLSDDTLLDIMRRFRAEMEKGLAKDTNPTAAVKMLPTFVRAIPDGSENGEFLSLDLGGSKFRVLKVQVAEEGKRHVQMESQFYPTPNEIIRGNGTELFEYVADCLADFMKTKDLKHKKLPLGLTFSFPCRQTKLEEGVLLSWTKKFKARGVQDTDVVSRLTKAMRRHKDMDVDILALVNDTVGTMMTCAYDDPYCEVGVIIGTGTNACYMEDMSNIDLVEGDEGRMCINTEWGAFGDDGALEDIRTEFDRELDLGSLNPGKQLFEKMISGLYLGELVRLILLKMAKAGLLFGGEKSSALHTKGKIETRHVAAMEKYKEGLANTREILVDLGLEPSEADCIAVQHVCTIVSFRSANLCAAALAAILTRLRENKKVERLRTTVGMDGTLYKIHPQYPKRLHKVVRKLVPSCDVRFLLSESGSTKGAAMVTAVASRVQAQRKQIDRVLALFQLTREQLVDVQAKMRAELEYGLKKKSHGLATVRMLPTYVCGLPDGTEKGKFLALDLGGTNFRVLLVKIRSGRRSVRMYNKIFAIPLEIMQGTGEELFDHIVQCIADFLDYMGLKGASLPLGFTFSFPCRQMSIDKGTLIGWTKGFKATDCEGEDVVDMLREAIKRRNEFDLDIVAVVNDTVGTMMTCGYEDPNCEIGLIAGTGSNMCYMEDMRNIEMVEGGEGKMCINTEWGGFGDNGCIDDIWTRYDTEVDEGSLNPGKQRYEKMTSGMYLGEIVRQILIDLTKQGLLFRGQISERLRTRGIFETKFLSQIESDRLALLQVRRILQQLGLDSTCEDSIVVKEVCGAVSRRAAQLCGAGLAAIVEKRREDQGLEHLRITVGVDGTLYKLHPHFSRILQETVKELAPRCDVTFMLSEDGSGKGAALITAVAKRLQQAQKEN

[6] = target: T2, Short transient receptor potential channel 4 (Mus musculus, UniProt Q9QUQ5); assay: mouse TRPC4 channel activators, dose response, cell-based, HEK293 TRPC4/mu-opioid, Fluo-4 calcium (AID 434937); format: functional
T2 sequence (Q9QUQ5 whole entry): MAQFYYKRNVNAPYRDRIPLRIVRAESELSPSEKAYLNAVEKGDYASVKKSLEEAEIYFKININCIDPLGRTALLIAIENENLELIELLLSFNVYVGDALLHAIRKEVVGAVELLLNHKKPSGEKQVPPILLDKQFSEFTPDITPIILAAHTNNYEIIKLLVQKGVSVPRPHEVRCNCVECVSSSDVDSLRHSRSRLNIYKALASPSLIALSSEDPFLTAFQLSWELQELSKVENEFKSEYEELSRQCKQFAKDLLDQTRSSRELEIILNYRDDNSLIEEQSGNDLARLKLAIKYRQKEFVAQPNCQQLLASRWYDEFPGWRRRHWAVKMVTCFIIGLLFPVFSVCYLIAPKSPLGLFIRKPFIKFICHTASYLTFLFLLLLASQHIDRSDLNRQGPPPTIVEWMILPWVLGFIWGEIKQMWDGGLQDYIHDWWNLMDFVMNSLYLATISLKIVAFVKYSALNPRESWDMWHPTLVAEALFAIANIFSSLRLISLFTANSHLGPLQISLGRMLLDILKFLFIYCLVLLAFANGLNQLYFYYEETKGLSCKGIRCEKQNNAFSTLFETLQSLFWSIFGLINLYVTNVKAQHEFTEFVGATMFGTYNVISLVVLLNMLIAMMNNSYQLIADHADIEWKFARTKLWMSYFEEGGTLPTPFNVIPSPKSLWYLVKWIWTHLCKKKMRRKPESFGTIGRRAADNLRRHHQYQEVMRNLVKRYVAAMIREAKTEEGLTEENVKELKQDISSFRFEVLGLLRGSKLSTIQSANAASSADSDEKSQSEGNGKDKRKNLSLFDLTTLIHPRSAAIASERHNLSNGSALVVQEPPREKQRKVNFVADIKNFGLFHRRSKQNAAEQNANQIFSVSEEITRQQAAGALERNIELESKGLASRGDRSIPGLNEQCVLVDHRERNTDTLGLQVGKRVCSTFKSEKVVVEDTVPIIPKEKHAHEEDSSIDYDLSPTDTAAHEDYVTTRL

[7] = target: T3, Hexokinase-1 (Homo sapiens, UniProt P19367); assay: hexokinase 1 activators, dose response, selectivity assay for HKDC1 activator project, biochemical (AID 504762); format: functional
T3 sequence (P19367 whole entry): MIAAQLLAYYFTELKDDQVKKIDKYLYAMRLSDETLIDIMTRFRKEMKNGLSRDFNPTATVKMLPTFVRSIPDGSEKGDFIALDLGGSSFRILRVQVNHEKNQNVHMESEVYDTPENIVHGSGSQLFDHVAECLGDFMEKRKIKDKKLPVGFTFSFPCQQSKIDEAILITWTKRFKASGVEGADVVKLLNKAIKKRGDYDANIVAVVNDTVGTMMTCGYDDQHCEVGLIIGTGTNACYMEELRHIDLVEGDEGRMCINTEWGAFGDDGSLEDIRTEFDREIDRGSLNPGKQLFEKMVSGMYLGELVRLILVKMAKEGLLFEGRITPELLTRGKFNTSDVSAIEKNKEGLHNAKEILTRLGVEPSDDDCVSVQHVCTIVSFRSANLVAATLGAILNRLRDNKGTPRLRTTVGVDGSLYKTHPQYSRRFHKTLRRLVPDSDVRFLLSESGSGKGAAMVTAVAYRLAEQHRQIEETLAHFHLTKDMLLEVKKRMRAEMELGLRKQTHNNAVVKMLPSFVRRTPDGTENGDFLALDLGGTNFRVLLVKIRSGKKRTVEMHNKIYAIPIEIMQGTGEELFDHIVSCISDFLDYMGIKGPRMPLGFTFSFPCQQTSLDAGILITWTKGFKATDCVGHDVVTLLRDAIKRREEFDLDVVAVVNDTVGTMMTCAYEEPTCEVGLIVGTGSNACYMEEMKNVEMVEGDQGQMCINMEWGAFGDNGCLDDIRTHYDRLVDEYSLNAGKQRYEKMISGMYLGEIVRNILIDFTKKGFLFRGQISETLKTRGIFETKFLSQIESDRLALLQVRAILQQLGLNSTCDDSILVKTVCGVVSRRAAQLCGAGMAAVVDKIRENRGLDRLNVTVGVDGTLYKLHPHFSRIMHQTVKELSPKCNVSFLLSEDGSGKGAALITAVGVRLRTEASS

[8] = target: T4, Peroxisome proliferator-activated receptor gamma (Homo sapiens, UniProt P37231); assay: PPARg partial agonists, dose response, cell-based, luminescence, assay provider (AID 504447); format: functional
T4 sequence (P37231 whole entry): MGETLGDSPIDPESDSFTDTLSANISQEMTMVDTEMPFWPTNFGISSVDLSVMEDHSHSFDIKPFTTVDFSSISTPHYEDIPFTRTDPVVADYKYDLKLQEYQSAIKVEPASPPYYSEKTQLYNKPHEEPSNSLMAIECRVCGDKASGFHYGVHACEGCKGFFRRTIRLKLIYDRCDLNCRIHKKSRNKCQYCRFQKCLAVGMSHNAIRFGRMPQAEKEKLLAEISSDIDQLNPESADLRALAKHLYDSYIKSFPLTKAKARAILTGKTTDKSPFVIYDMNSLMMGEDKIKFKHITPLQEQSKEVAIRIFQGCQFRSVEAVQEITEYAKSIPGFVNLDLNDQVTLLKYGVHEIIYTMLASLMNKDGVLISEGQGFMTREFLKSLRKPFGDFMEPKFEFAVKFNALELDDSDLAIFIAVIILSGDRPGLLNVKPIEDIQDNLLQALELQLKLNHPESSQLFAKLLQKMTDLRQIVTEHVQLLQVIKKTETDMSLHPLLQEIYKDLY

[9] = target: T5, E3 ubiquitin-protein ligase XIAP (Homo sapiens, UniProt P98170); assay: Counter Screen using XIAP-Bir3 for Chemical Antagonists of Bir1/2 domains of IAP-family anti-apoptotic proteins. [Related pubchem assays (depositor defined):AID1018, AID1449, AID1514, AID1638, AID1749, AID1750, AID488957, AID488963]
T5 sequence (P98170 whole entry): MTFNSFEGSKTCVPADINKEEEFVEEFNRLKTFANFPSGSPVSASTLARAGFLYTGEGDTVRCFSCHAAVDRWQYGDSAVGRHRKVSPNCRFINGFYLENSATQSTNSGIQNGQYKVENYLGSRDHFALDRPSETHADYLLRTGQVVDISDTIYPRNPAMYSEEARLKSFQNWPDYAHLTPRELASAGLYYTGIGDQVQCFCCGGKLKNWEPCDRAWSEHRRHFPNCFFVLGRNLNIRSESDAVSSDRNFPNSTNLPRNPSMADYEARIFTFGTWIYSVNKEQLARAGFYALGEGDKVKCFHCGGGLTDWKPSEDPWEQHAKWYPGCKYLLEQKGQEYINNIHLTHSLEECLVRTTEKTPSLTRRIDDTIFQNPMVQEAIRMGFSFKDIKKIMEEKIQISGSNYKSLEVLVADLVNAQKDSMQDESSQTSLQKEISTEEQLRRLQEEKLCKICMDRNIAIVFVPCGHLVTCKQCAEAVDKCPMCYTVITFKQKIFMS

[10] = target: T5, E3 ubiquitin-protein ligase XIAP; assay: XIAP antagonists, biochemical, IAP family, fluorescence polarization (AID 1018); format: functional
[11] = target: Protein-tyrosine kinase 2-beta (Homo sapiens, UniProt Q14289);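 further: potency of inhibitors of PYK2 kinase phosphorylation of poly-GT substrate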
Sequence of Protein-tyrosine kinase 2-beta (Q14289 whole entry): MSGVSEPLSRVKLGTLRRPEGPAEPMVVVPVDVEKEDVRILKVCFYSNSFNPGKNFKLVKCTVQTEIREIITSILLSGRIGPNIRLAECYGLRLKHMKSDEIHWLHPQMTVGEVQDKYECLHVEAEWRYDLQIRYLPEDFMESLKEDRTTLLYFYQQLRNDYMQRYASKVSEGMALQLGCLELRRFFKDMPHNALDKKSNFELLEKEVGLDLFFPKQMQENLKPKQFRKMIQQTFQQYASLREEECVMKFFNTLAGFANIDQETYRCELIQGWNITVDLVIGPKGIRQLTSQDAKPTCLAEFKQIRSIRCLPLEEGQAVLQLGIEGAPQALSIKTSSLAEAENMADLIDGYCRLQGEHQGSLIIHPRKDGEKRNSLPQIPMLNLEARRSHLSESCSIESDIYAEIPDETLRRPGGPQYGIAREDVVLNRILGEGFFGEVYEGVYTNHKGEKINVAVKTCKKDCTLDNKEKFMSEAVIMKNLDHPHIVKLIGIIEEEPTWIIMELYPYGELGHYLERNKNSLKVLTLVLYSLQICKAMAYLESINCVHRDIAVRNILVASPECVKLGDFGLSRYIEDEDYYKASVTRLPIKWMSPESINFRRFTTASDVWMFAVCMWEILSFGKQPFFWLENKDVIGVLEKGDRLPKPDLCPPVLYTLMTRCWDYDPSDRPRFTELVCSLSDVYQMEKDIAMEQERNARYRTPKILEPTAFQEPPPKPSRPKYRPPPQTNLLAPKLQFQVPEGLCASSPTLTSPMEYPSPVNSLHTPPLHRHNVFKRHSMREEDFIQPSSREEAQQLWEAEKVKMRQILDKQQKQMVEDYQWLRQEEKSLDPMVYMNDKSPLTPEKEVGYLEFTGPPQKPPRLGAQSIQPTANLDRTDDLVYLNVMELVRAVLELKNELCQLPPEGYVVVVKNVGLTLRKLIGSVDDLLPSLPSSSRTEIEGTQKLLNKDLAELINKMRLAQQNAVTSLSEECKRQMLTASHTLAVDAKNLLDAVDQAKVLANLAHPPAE

[12] = target: Peroxisome proliferator-activated receptor gamma/Nuclear receptor coactivator 1 (Homo sapiens, UniProt P37231); assay: (§1) TR-FRET dose response biochemical High Throughput Screening assay for agonists of the steroid receptor coactivator 1 (SRC-1) recruitment by the peroxisome proliferator-activated receptor gamma (PPAR gamma): non-selective agonists. [Related pubchem assays (depositor defined):AID1300, AID1808, AID504735, AID631]; format: protein assay
[13] = target: Peroxisome proliferator-activated receptor gamma/Nuclear receptor coactivator 3 (Homo sapiens, UniProt P37231); assay: as §1, with “3 (SRC-3)” for “1 (SRC-1)”, “assays: 1301 (Confirmation screen.), 1048 (Primary screen.)]” for “assays (depositor defined):AID1300, AID1808, AID504735, AID631]”; format: functional
Sequence of Peroxisome proliferator-activated receptor gamma/Nuclear receptor coactivator 3 (Q9Y6Q9 whole entry, one chain of several, further chain): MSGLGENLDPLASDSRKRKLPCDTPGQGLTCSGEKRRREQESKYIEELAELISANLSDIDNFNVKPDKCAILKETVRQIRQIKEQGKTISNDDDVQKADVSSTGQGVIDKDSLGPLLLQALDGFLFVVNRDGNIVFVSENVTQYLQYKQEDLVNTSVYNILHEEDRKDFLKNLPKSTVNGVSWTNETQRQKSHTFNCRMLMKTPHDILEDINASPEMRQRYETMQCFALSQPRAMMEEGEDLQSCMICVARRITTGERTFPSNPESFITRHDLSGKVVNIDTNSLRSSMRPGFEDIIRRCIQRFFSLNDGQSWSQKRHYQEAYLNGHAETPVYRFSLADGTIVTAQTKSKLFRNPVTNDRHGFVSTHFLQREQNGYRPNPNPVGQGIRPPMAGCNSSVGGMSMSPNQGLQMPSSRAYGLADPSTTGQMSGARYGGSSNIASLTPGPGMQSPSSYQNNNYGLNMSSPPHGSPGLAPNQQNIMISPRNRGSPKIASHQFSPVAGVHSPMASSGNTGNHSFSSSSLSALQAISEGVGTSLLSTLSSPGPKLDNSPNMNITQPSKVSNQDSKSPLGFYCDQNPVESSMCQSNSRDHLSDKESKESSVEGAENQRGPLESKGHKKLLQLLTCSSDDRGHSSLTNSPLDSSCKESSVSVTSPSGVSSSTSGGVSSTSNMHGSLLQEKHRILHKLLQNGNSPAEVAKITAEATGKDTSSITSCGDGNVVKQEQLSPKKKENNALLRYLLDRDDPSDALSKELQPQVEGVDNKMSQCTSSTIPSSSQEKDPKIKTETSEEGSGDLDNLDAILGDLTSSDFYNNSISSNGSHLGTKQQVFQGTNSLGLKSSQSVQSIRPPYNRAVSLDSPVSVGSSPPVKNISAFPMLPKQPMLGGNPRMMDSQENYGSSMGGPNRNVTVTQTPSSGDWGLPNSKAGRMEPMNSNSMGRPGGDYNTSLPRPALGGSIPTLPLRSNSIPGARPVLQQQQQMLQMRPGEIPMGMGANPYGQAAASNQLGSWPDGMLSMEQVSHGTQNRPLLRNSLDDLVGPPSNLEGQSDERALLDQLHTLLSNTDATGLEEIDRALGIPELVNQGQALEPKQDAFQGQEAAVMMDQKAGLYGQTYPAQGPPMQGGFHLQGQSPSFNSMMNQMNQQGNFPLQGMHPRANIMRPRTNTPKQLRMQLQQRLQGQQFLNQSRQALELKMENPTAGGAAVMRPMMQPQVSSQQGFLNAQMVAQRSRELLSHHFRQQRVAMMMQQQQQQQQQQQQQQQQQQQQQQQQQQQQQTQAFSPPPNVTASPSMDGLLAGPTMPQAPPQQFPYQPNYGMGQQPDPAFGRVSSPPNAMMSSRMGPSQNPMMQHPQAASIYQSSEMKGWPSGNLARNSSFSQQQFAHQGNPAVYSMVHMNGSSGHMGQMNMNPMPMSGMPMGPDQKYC

[14] = target: Peroxisome proliferator-activated receptor gamma/Nuclear receptor coactivator 2 (Homo sapiens, UniProt P37231); assay: TR-FRET dose response biochemical High Throughput Screening assay for agonists of the steroid receptor coactivator 2 (SRC-2) recruitment by the peroxisome proliferator-activated receptor gamma (PPAR gamma): non-selective agonists. [Related pubchem assays: 1297, 1032 ]; format: functional
Sequence of Peroxisome proliferator-activated receptor gamma/Nuclear receptor coactivator 2 (Q15596 whole entry, one chain of several, further chain): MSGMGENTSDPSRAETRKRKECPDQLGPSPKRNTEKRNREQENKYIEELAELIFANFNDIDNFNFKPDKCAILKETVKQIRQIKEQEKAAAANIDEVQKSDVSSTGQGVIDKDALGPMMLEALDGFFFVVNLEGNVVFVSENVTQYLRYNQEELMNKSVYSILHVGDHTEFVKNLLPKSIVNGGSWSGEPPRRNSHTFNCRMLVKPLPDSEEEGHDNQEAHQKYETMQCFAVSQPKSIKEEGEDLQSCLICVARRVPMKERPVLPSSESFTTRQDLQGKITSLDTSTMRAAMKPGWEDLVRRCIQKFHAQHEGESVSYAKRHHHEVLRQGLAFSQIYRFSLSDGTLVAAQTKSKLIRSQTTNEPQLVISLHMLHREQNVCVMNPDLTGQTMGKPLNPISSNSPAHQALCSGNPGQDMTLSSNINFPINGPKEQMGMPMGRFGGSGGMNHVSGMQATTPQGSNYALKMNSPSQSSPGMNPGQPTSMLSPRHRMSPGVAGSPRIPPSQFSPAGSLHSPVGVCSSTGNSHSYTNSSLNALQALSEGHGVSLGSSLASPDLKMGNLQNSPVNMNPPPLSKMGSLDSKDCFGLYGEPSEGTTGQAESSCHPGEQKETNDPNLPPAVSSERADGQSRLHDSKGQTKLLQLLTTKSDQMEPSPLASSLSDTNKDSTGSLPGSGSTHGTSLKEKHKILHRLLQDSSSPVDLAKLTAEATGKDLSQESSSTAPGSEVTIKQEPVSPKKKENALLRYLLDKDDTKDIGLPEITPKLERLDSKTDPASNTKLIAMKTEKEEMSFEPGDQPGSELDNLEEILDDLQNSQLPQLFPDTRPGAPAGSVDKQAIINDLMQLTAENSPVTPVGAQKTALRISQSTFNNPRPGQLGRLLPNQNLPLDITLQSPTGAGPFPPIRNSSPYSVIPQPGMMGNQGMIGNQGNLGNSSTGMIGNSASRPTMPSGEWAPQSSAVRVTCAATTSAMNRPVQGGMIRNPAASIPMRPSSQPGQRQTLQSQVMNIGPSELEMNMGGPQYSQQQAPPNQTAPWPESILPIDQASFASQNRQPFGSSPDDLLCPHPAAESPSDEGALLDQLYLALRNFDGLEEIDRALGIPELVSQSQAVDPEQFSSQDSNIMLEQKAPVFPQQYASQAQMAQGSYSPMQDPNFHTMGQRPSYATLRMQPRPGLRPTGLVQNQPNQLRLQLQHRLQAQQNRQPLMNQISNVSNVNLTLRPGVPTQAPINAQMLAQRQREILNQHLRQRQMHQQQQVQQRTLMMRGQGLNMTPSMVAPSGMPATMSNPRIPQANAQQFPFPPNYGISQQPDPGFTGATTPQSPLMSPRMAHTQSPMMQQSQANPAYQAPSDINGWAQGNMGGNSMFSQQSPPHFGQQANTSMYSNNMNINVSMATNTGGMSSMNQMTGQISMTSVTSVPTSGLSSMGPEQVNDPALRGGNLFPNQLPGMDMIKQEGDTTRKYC

[15] = target: Major prion protein (Homo sapiens, UniProt P04156); format: functional, cell-based

CCOc1ccc(N(CC(=O)O)S(=O)(=O)c2ccc(F)cc2)cc1 was tested, and the EC50 [1] was > 29.9 µM (inactive) and the EC50 [2] was > 29.9 µM (not active).

With Cc1onc(-c2ccccc2)c1C(=O)NNC(=S)NC(=O)c1ccc(Br)cc1 the EC50 [3] was 0.472 µM (active), the EC50 [1] was 0.604 µM (active) and the EC50 [2] was 1.03 µM (active). The EC50 [4] was 1.52 µM (active), the EC50 [5] was 6.58 µM (active) and the EC50 [6] was 1.88 µM (active). The EC50 [7] was > 80 µM (inactive).

In the case of COc1ccc2c(c1)c(=O)c(C(=O)c1ccc(F)cc1)cn2CC(=O)Nc1ccc(F)cc1, the EC50 [8] is reported as 1.8 µM (active).

In the case of COc1ccc(OC)c(NS(=O)(=O)Cc2ccccc2)c1, the IC50 [9] is reported as > 100 µM (inactive), the IC50 [10] is reported as > 100 µM (not active) and the IC50 [11] is reported as 12 µM (not active).

CC(C)N(CC#CCC(O)(c1ccccc1)c1ccccc1)CCO was tested, and the IC50 [9] was > 100 µM (inactive) and the IC50 [10] was > 100 µM (not active).

COC(=O)c1cc(Cl)c(NC(=O)c2cc3ccccc3o2)cc1OC was tested, and the EC50 [12] was 7.17 µM (active), the EC50 [13] was 63 µM (not active) and the EC50 [14] was 12.3 µM (not active).

For CC(=O)CSc1nc(-c2cccs2)c(C#N)c(=O)[nH]1, the EC50 [12] was > 79.4 µM (inactive), the EC50 [13] was > 79.4 µM (not active) and the EC50 [14] was > 79.4 µM (not active). The IC50 [15] was 2.27 µM (active).
